According to patent US7053105B2, “Farnesyl transferase inhibiting quinoline and quinazoline derivatives as farnesyl transferase inhibitors” (Janssen Pharmaceutica, N.V., priority 2000, dated 2006):

Structure (SMILES)	melting point
Cc1cc(-c2cccc(Cl)c2)c2cc(C(O)(c3ccc(Cl)cc3)c3nncn3C)ccc2n1.O (centres unmarked) (hydrate or solvate)	150 °C
Cn1cncc1C(O)(c1ccc(Cl)cc1)c1ccc2nc(C#Cc3ccccc3)cc(-c3cccc(Cl)c3)c2c1 (stereo not drawn) [Example B25, 4-(3-chlorophenyl)-α-(4-chlorophenyl)-α-(1-methyl-1H-imidazol-5-yl)-2-(phenylethynyl)-6-quinolinemethanol]	154 °C
Cc1cc(-c2cccc(Cl)c2)c2cc(C(O)(c3ccc(Cl)cc3)c3nnc(S)n3C)ccc2n1 (stereo not drawn) [Example B14a, 4-(3-chlorophenyl)-α-(4-chlorophenyl)-α-(5-mercapto-4-methyl-4H-1,2,4-triazol-3-yl)-2-methyl-6-quinolinemethanol]	166 °C
CSc1nnc(C(N)(c2ccc(Cl)cc2)c2ccc3nc(C)cc(-c4cccc(Cl)c4)c3c2)n1C (stereo not drawn) [Example B16b, 4-(3-chlorophenyl)-α-(4-chlorophenyl)-2-methyl-α-[4-methyl-5-(methylthio)-4H-1,2,4-triazol-3-yl]-6-quinolinemethanamine]	128 °C
Cn1cncc1-c1nc(-c2cccc(Cl)c2)c2cc(C(O)(c3ccc(Cl)cc3)c3cncn3C)ccc2n1 (stereo not drawn) [Example B6, 4-(3-chlorophenyl)-α-(4-chlorophenyl)-α,2-bis(1-methyl-1H-imidazol-5-yl)-6-quinazolinemethanol]	160 °C
CSc1nnc(C(O)(c2ccc(Cl)cc2)c2ccc3nc(C)cc(-c4cccc(Cl)c4)c3c2)n1C (stereo not drawn) [Example B14b, 4-(3-chlorophenyl)-α-(4-chlorophenyl)-2-methyl-α-[4-methyl-5-(methylthio)-4H-1,2,4-triazol-3-yl]-6-quinolinemethanol]	142 °C
Cn1cncc1C(O)(c1ccc(Cl)cc1)c1ccc2nc(-c3cccnc3)nc(-c3cccc(Cl)c3)c2c1 (stereo not drawn) [Example B26, 4-(3-chlorophenyl)-α-(4-chlorophenyl)-α-(1-methyl-1H-imidazol-5-yl)-2-(3-pyridinyl)-6-quinazolinemethanol]	178 °C
Cn1cncc1C(O)(c1ccc(Cl)cc1)c1ccc2nc(C=NO)cc(-c3cccc(Cl)c3)c2c1 (racemic) [Example B1, (±)-4-(3-chlorophenyl)-6-[(4-chlorophenyl)hydroxy(1-methyl-1H-imidazol-5-yl)methyl]-2-quinolinecarboxaldehyde, oxime]	205 °C
Cn1cncc1C(O)(c1ccc(Cl)cc1)c1ccc2nc(N)nc(-c3cccc(Cl)c3)c2c1 (stereo not drawn) [Example B19, 2-amino-4-(3-chlorophenyl)-α-(4-chlorophenyl)-α-(1-methyl-1H-imidazol-5-yl)-6-quinazolinemethanol]	235 °C
Cn1cncc1C(O)(c1ccc(Cl)cc1)c1ccc2nc(/C=C/C(N)=O)cc(-c3cccc(Cl)c3)c2c1 (racemic) [Example B11, (±)-(E)-3-[4-(3-chlorophenyl)-6-[(4-chlorophenyl)hydroxy(1-methyl-1H-imidazol-5-yl)methyl]-2-quinolinyl]-2-propenamide]	80 °C
Cc1nc(-c2cccc(Cl)c2)c2cc(C(O)(c3ccc(Cl)cc3)c3cncn3C)ccc2n1 (stereo not drawn) [Example B13, 4-(3-chlorophenyl)-α-(4-chlorophenyl)-2-methyl-α-(1-methyl-1H-imidazol-5-yl)-6-quinazolinemethanol]	223 °C
